{"source": "patent US12378247B2", "about": "“Mesylate salt of para-topolin, compositions containing said salt and use thereof” (USTAV EXPERIMENTALNI BOTANIKY AV CR, V. V. I., priority 2020, dated 2025)", "key": {"[1]": {"tested_on": "G361 (malignant melanoma)", "test": "Calcein AM cytotoxicity assay, G361", "format": "cell-based", "settings": "G361, 3-day Calcein-AM assay; read-out: Cytotoxic activity IC50", "text": "(§1) Because toxic compounds negatively influence metabolic processes of cells, many standard cytotoxicity assays are based on measurement of metabolisation rate of various artificial substrates. Resulting product is then quantified, for example, by means of spectrometry. The assays can be easily modified for use in 96-well plates. For evaluation of cytotoxicity of the […] of this invention, a microtiter assay based on quantification of metabolisation of Calcein AM was used. The assay is widely used in drug screening programs and in chemosensitivity testing. In live cells, Calcein AM is enzymatically hydrolysed and accumulation of the resulting calcein is manifested by green fluorescence. […]\n(§2) Approximately 10,000 cells in 80 μL of medium were seeded into 96-well microtitre plates. […] The fluorescence of free calcein was then quantified using a Fluoroscan Ascent fluorometer (Microsystems), and the percentage of surviving cells in each well was calculated by dividing the OD obtained from each cell with exposed cells by the mean OD obtained from control wells×100%. […]"}, "HOS (human osteosarcoma)": {"tested_on": "HOS (human osteosarcoma)", "test": "Calcein AM cytotoxicity assay, HOS", "format": "cell-based", "settings": "3-day Calcein-AM assay, read-out: Cytotoxic activity IC50", "text": "as §1, §2"}, "[2]": {"test": "Calcein AM cytotoxicity assay, K562", "format": "cell-based", "settings": "human, K562 cells (chronic myelogenous leukaemia), K562, 3-day Calcein-AM assay; read-out: Cytotoxic activity IC50", "text": "as §1, §2"}, "[3]": {"test": "Pharmacokinetics / bioavailability upon intraduodenal administration in rats", "format": "in vivo, male Sprague-Dawley rats", "settings": "rat", "procedure": "Preparation of Dosing Solutions for In-Vivo Study: Para-topolin and para-topolin mesylate salt were stored at room temperature under desiccant and protected from light. The dosing solutions were prepared fresh from powders on the day of dosing. The dosing solution for intravenous administration (IV) was prepared at 1 mg/mL (free acid) in 50:50 DMSO: saline. The dosing solution for intraduodenal administration (ID) was prepared at 2 mg/mL in a 0.2% sodium carboxymethyl cellulose (Na CMC) aqueous solution.\nAdministration to Animals: The pharmacokinetics of para-topolin base and mesylate was evaluated in fasted male Sprague-Dawley rats. […]\nEach blood sample was collected from the rats via a jugular vein cannula and placed into chilled polypropylene tubes containing sodium heparin as an anticoagulant. […] The total concentration of para-topolin in plasma samples were analyzed by LC-MS/MS after an overnight incubation with glucuronidase/arylsulfatase enzyme mixture. Pharmacokinetic parameters were calculated using the WinNonlin software.\nAnalysis of Plasma Samples: An LC-MS/MS analytical method for the determination of […] in rat plasma was developed (Novák et al., Phytochemistry, 69, 2008:2214-2224). Prior to sample analysis, a standard curve was analyzed to determine the specificity, range, and linearity of the method. […]"}, "[4]": {"test": "Calcein AM cytotoxicity assay, G361", "format": "cell-based", "settings": "human, G361 cells (malignant melanoma); G361, 3-day Calcein-AM assay; read-out: Cytotoxic activity IC50", "text": "as §1, §2"}, "[5]": {"test": "Stability study by XRPD diffraction", "format": "physicochemical", "settings": "25° C., on light, after 30 days", "procedure": "X-ray powder diffraction studies were performed on a Bruker D8 Advance ECO diffractometer with Cu K-alpha radiation and SSD160 detector. Approximately 5 mg of sample was gently compressed on the XRPD sample holder. The sample was then loaded into a Bruker D8-Discover diffractometer in transmission mode and analyzed using the experimental conditions shown below: XRPD measurement conditions\nSample stability was tested at 25° C. for […] on light. […] XRPD of samples were taken after 30 days to investigate any solid form change (any difractogram/pattern change)."}, "[6]": {"test": "Calcein AM cytotoxicity assay, HOS", "format": "cell-based, human", "settings": "human, HOS cells (osteosarcoma), 3-day Calcein-AM assay, read-out: Cytotoxic activity IC50", "text": "as §1, §2"}}, "note": "Structures can show the parent of a compound that is named as a salt."}
{"compound": "Oc1ccc(CNc2ncnc3nc[nH]c23)cc1", "note": "[para-topolin, 6-(4-Hydroxybenzylamino) purine]", "values": [{"measurement": "IC50", "setting": "[1]", "result": "> 167", "unit": "µM"}, {"measurement": "IC50", "setting": "HOS (human osteosarcoma)", "result": "> 167", "unit": "µM"}]}
{"compound": "Oc1ccc(CNc2ncnc3nc[nH]c23)cc1", "note": "[para-topolin mesylate, 6-(4-hydroxybenzylamino) purine (para-topolin) mesylate (methylsulphonate)]", "values": [{"measurement": "IC50 at 72 h", "setting": "[2]", "result": "> 167", "unit": "µM"}, {"measurement": "time after ID dosing at which Cmax was observed", "setting": "[3]", "result": "≤ 15", "unit": "min"}, {"measurement": "IC50 at 72 h", "setting": "[4]", "result": "> 167", "unit": "µM"}, {"measurement": "Solid-state stability (structure, color, XRPD pattern change)", "setting": "[5]; listed as crystalline para-topolin mesylate salt", "result": "No structure nor color change"}, {"measurement": "Solid-state stability (structure, color, XRPD pattern change)", "setting": "[5]; listed as para-topolin mesylate crystalline salt", "result": "no structural pattern changes detected"}, {"measurement": "IC50 at 72 h", "setting": "[6]", "result": "> 167", "unit": "µM"}]}
